Results reported in patent US20070275960A1, “Phenyl and pyridyl compounds for inflammation and immune-related uses” (Synta Pharmaceuticals Corp., priority 2006, published 2007).
Counter-ions that a name gives are not always drawn.

Test system: IL-2 production
Experiment: Inhibition of IL-2 production in PHA-activated Jurkat cells (ELISA)
Type: cell-based
Conditions: PHA 2.5 μg/mL, 20 hours at 37° C., IL-2 by ELISA
Experimental: Jurkat cells were placed in a 96 well plate (0.5 million cells per well in 1% FBS medium) then a test compound of this invention was added at different concentrations. After 10 minutes, the cells were activated with PHA (final concentration 2.5 μg/mL) and incubated for 20 hours at 37° C. under CO2. The final volume was 200 μL. Following incubation, the cells were centrifuged and the supernatants collected and stored at −70° C. prior to assaying for IL-2 production. A commercial ELISA kit (IL-2 Eli-pair, Diaclone Research, Besancon, France) was used to detect production of IL-2, from which dose response curves were obtained. The IC50 value was calculated as the concentration at which 50% of maximum IL-2 production after stimulation was inhibited versus a non-stimulation control.

SMILES	IC50 (Homo sapiens, Jurkat, 20 h) [nM]	IC50 [nM]
Cc1cc(-c2ccncc2)sc1-c1ccc(NC(=O)c2snnc2C)cc1 [Compound 99, 4-Methyl-[1,2,3]thiadiazole-5-carboxylic acid [4-(3-methyl-5-pyridin-4-yl-thiophen-2-yl)-phenyl]-amide, hydrochloride]	5.2	–
Cc1cc(-c2ccncc2)sc1-c1ccc(NC(=O)c2snnc2C)cc1 [Compound 118, 4-Methyl-[1,2,3]thiadiazole-5-carboxylic acid [4-(3-methyl-5-pyridin-4-yl-thiophen-2-yl)-phenyl]-amide]	–	6.1
Cc1cnccc1C(=O)Nc1ccc(-c2sc(-c3cncnc3)cc2C)cc1 [Compound 97, 3-Methyl-N-[4-(3-methyl-5-pyrimidin-5-yl-thiophen-2-yl)-phenyl]-isonicotinamide]	7.2	–
COC(=O)c1cc(-c2ccc(NC(=O)c3ccncc3C)cc2)c(C)s1 [Compound 2, 5-Methyl-4-{4-[(3-methyl-pyridine-4-carbonyl)-amino]-phenyl}-thiophene-2-carboxylic acid methyl ester]	3	–
Cc1cncnc1C(=O)Nc1ccc(-c2sc(-c3cnco3)cc2C)cc1 [Compound 115, 5-Methyl-pyrimidine-4-carboxylic acid [4-(3-methyl-5-oxazol-5-yl-thiophen-2-yl)-phenyl]-amide]	9.6	–
O=C(Nc1ccc(-c2sc(-c3ccno3)cc2Cl)cc1)c1ccncc1F [Compound 114, 3-Fluoro-N-[4-(3-chloro-5-isoxazol-5-yl-thiophen-2-yl)-phenyl]-isonicotinamide]	11	–
Cc1cc(-c2ccno2)sc1-c1ccc(NC(=O)Nc2c(F)cccc2F)cc1 [Compound 125, 1-(2,6-difluoro-phenyl)-3-[4-(5-isoxazol-5-yl-3-methyl-thiophen-2-yl)-phenyl]-urea]	2.5	–
